Laboratory results reported in patent US11976074B1, “Crystalline salts of Linsitinib” (Sling Therapeutics, Inc., priority 2023, dated 2024).
Entries after “also recorded” stand apart in the source; their conditions may differ. One block for each compound: values may come before it.

Legend:
Format in all cases: physicochemical
[1] = Equilibrium solubility in bio-relevant media (FaSSGF pH 1.6, FaSSIF pH 6.5)
Excerpt: In addition to the pH-solubility data, a comparison of the equilibrium solubility of linsitinib free base and salts in two bio-relevant media (Table 28), fasted state simulated gastric fluid (FaSSGF pH 1.6) and intestinal fluid (FaSSIF pH 6.5) was completed. […] A saturated solution of Esylate 1 was not achieved during this study and therefore the equilibrium solubility could be higher than determined. It should be noted that variability of almost a full pH unit was noted among the samples making a direct comparison more challenging.

[2] = Water activity slurries of Esylate 2 seeded with Esylate 1; conditions: for PXRD result of water activity slurry: seeded with Esylate 1
Excerpt: Water activity slurries were set-up with Esylate 2 and seeds of Esylate 1 to explore the presence of a potential hydrate and any associated critical water activity (Table 12). Four slurries were set-up in varying ratios of THF and H2O corresponding to 0.45, 0.63, 0.78 and 0.91 aw respectively.

[3] = DVS analysis (hygroscopicity) of Esylate 2
Excerpt: Esylate 2 appears to be a stable polymorph of the esylate salt of linsitinib. Esylate 2 was isolated from a wide range of techniques, solvents and temperatures, and a few samples were characterized further (Table 13). NMR analysis confirmed it to be a 1:1 linsitinib esylate salt. […] This was further supported by successful indexing of its PXRD pattern, whose calculated unit cell volume pointed to a 1:1 salt (Section 0).

[4] = 75% relative humidity stress test; conditions: 24 days, RT
Method: (§1) A scale-up attempt for Esylate 2 was carried out towards the relative humidity stress test and the mechanical stress test.

[5] = pH-solubility of linsitinib free base and selected salts (pH 1.5 to 6.5, overnight equilibration, HPLC); conditions: for solubility: overnight equilibration; for Final pH: after overnight equilibration
Method: The pH-solubility of selected salts (Phosphate 1, L-Malate 1, Esylate 1, and Esylate 2) was evaluated and compared with linsitinib free base. The solubility analysis was conducted in a manner consistent with a previous study that was performed with linsitinib free base. Aqueous solutions were prepared between pH 1.5 and pH 6.5 in 0.5 pH unit increments via titration of the solution using NaOH and HCl. For each salt or the free base, an attempt was made to reach saturation in each of the solutions by adding sufficient material to the solution such that excess solids remained. If saturation was achieved, the pH of the solution was measured and adjusted to the target pH and additional material was added if needed. The samples were then equilibrated overnight. The final pH of the solution was measured, the solids were filtered and selected samples were analyzed by PXRD. The concentration of linsitinib in the filtrate was quantitated by HPLC (diluted as needed). In some cases, significant drift (+1 pH unit or more) of the final pH from the target pH was observed after the overnight equilibration.
The pH-solubility data is shown graphically in FIG. 89. […] Indeed, it should be noted that in the majority of the low pH systems, higher initial dissolution/solubility was observed followed by precipitation of the material from solution upon longer equilibration.

[6] = Mechanical stress test (neat grinding/milling); conditions: milled neat at max power for 30 minutes
Method: as §1

[7] = Interconversion slurries of esylate forms; conditions: 4° C., RT, 60° C.; MEK and 2:1 EtOH:HEP
Method: To find the thermodynamically stable form of the mono-salt, interconversion slurries were set-up at three different temperatures in two different solvent systems between Esylates 1, 2, 3 and Esylate 4+Esylate 5 (Table 11). A sample of Esylate 4+Esylate 5 was included as part of the interconversion slurry in-spite of Esylate 4 being a solvate as Esylate 5 could not be isolated as a separate pure phase until the drying experiment was carried out on Esylate 4 towards the end of the study. Slurries were set-up at 4° C., RT and at 60° C. in MEK and 2:1 EtOH:HEP, resulting in a total of six experiments which were run for a total of 7 days.

[8] = Physical stability testing of Esylate 4 (elevated temperature vacuum drying); conditions: vacuum oven, 60° C., 18 hours
Excerpt: Esylate 4 was obtained from salt formation experiments using 1 Eq ESA at RT and ST in IPA and was further characterized using multiple techniques (Table 16).
Esylate 5 was initially only obtained in-tandem with Esylate 4 from slurries in several different solvent systems (FIG. 4). […] Due to the fact that the sample had been generated via drying at elevated temperature, the weight loss observed upon heating is likely due to surface or channel water absorbed during exposure to ambient conditions. […] Esylate 5 was not obtained from any of the interconversion slurries, indicating it is metastable under the conditions investigated (Table 18).

[9] = Heating experiments with selected malate samples
Method: Based on the thermal data, Malate 4 and Malate 5 were heated at […] for 15 minutes. The solids were re-analyzed by PXRD after heating to investigate any form change upon dehydration. […] While there was an insufficient amount of sample to further characterize Malate 7, based on the conditions upon which it was generated, it could be a lower hydrate or an anhydrous form.

[10] = Thermogravimetric analysis (TGA); conditions: start to 83° C.
Method: The TG analysis was carried out using a TA Instruments […] Discovery Series instrument. The instrument balance was calibrated using class M weights and the temperature calibration was performed using alumel. The nitrogen purge was 10 mL per minute at the balance and 25 mL per minute at the furnace. The sample was placed into a pre-tared platinum pan and heated from approximately 25° C. to 300° C. at a rate of 10° C. per minute.

[11] = Differential scanning calorimetry (DSC); conditions: endotherms
Method: DSC analysis was carried out using a TA Instruments […] Discovery Series instrument. The instrument temperature calibrations were performed using indium. The DSC cell was kept under a nitrogen purge of 50 mL per minute during the analysis. The sample was placed in a standard, crimped aluminum pan and heated from approximately 25° C. to 300° C. at a rate of 10° C. per minute

Final pH ([1]; FaSSGF (pH 1.6)): 3.25
solubility ([1]; FaSSGF (pH 1.6)): 103.10 mg/mL
Final pH ([1]; FaSSIF (pH 6.5)): 3.72
solubility ([1]; FaSSIF (pH 6.5)): 1.62 mg/mL
PXRD result of water activity slurry ([2]; 93.1% THF in H2O, aw = 0.91, RT): Esylate 2
PXRD result of water activity slurry ([2]; 94.7% THF in H2O, aw = 0.78, RT): Esylate 2
PXRD result of water activity slurry ([2]; 96.2% THF in H2O, aw = 0.63, RT): Esylate 2
PXRD result of water activity slurry ([2]; 97.6% THF in H2O, aw = 0.45, RT): Esylate 2
Critical water activity, if present ([2]; THF/H2O slurries at RT): > 0.91 aw
Hygroscopicity by DVS [3]: slightly hygroscopic
Net weight change after DVS analysis [3]: no net weight change
Weight gain and loss during the sorption and desorption cycles [3]: 1%
DVS sorption total weight gain ([3]; 5-95% RH): 5-95% RH: Total 33.1% weight gain
DVS sorption weight gain ([3]; 35-75% RH): 35-75% RH: 12.0% weight gain
DVS desorption weight loss ([3]; 75-35% RH): 75-35% RH: 12.3% weight loss
DVS sorption weight gain ([3]; 75-95% RH): 75-95% RH: 16.9% weight gain
DVS desorption total weight loss ([3]; 95-5% RH): 95-5% RH: Total 33.1% weight loss
DVS desorption weight loss ([3]; 95-75% RH): 95-75% RH: 14.2% weight loss
Water up-take above 85% RH ([3]; above 85% RH): ~0.8%
DVS net weight change ([3]; after sorption and desorption): −0.04% weight loss
PXRD result after 75% RH stress [4]: no form change; also recorded: Esylate 2
Weight gain by TGA after 75% RH stress [4]: no weight gain
solubility ([5]; aqueous solution, pH 6, aqueous buffer, thermodynamic from solid, target pH 6.0, read-out: Solubility): 0.7 mg/mL
Solubility compared to the free base and other salts ([5]; between pH 3 and pH 4): highest solubility
Solubility compared with the free base or Phosphate 1 ([5]; lower pH (<3)): significantly higher solubility
Final pH ([5]; target pH 1.5): 1.45
solubility ([5]; target pH 1.5, * = clear solution, not equilibrium value): 106.19 mg/mL
Final pH ([5]; target pH 2.0): 2.06
solubility ([5]; target pH 2.0, * = clear solution, not equilibrium value): 97.33 mg/mL
Final pH ([5]; target pH 2.5): 2.54
solubility ([5]; target pH 2.5, * = clear solution, not equilibrium value): 71.00 mg/mL
Final pH ([5]; target pH 3.0): 3.04
solubility ([5]; target pH 3.0, * = clear solution, not equilibrium value): 73.90 mg/mL
Final pH ([5]; target pH 3.5): 3.53
solubility ([5]; target pH 3.5, * = clear solution, not equilibrium value): 38.04 mg/mL
Final pH ([5]; target pH 4.0): 3.99
solubility ([5]; target pH 4.0, * = clear solution, not equilibrium value): 39.56 mg/mL
Final pH ([5]; target pH 4.5): 4.54
solubility ([5]; target pH 4.5, * = clear solution, not equilibrium value): 18.90 mg/mL
Final pH ([5]; target pH 5.0): 4.96
solubility ([5]; target pH 5.0): 20.46 mg/mL
Final pH ([5]; target pH 5.5): 5.48
Final pH ([5]; target pH 6.0): 4.18
Final pH ([5]; target pH 6.5): 4.34
solubility ([5]; target pH 6.5): 0.002 mg/mL
Relative stability of the form in interconversion slurries [7]: most stable form
SMILES: CCS(=O)(=O)O.C[C@]1(O)C[C@@H](c2nc(-c3ccc4ccc(-c5ccccc5)nc4c3)c3c(N)nccn32)C1 [Esylate 2]
Solubility compared with the free base ([1]; FaSSGF (pH 1.6), in words): highest solubility by a significant margin
PXRD result after grinding [6]: poorly crystalline Esylate 2 along with amorphous residue

PXRD result after vacuum drying [8]: form change into Esylate 5
Relative stability of the form in interconversion slurries [7]: metastable
SMILES: CCS(=O)(=O)O.C[C@]1(O)C[C@@H](c2nc(-c3ccc4ccc(-c5ccccc5)nc4c3)c3c(N)nccn32)C1 [Esylate 4]

XRPD result after heating ([9]; 92° C., 15 min): Malate 7 + pk
TGA Results (weight loss) [10]: 7.4%, start to 83 °C
DSC Results, Endo [11]: Endo: 109 °C
SMILES: C[C@]1(O)C[C@@H](c2nc(-c3ccc4ccc(-c5ccccc5)nc4c3)c3c(N)nccn32)C1.O=C(O)C[C@H](O)C(=O)O [Malate 5]
Form change upon heating (PXRD) ([9]; heated for 15 minutes): dehydrate to a new form, designated as Malate 7
